Results as given in patent publication US20230310554A1 (priority 2020, published 2023).
“And” between values parts separate entries of the source, which are not always exact repeats. Equal values may be shown once.

Key:
PC-12 cells = assay type: cell-based, rat; conditions: for EC50: read-out: EC50 of cyanide under existence of each antidote
[1] = tested on: cyanide poisoning mouse models; parameters: species or system mouse (ddY); conditions: in vivo
[2] = tested on: cyanide poisoning mouse models; parameters: species or system mouse (ddY); conditions: in vivo; remark: listed apart in the source
[3] = tested on: cyanide poisoning mouse models; parameters: species or system mouse (ddY); conditions: in vivo; remark: listed apart in the source
[4] = tested on: plasma proteins such as haptocorrin; conditions: cited from earlier work

| Compound | cell viability compared with the control group to which only NaCN had been added (PC-12 cells) | EC50 (PC-12 cells) | mice survived [1] | survival rate [2] | time required until the recovery (coma to awakening) [3] | reduction of antidotal ability by binding to plasma proteins [4] |
| --- | --- | --- | --- | --- | --- | --- |
| O=S([O-])([O-])=S.[Na+].[Na+] [Na2S2O3, sodium thiosulfate] | had no effects | 9.98 mM and 12.5 mM and 12.1 mM and 10.4 mM and 10.7 mM | – | – | – | – |
| C/C1=C2/[N-][C@H]([C@H](CC(N)=O)[C@@]2(C)CCC(=O)NC[C@@H](C)OP(=O)([O-])O[C@H]2[C@@H](O)[C@@H](n3cnc4cc(C)c(C)cc43)O[C@@H]2CO)[C@]2(C)N=C(/C(C)=C3N=C(/C=C4N=C1[C@@H](CCC(N)=O)C\4(C)C)[C@@H](CCC(N)=O)[C@]\3(C)CC(N)=O)[C@@H](CCC(N)=O)[C@]2(C)CC(N)=O.[Co+3].[OH-] [OHCbl, hydroxocobalamin] | high survival rate | – | 50% | 90% and 70% and 60% | 4.8 min and 4.6 min | 1/600 |
| metHb: methemoglobin produced by oxidizing OxyHb with sodium nitrite | significantly high survival rate | 23.3 mM and 28.8 mM and 31.1 mM and 19.1 mM | – | – | – | – |
